Experimental data as given in patent US20210330611A1, “THERAPY FOR NEUROLOGICAL DISEASES/DISORDERS” (priority 2020, published 2021).
Where a name gives a salt, the structure may show the parent alone. Read-outs that look alike come from different tables or passages of the source.

Tests used:
[1] = test system: fibrin-induced microglia activation; experiment: Image-based assay of fibrin-induced microglia activation (HTS and dose response); type: cell-based, rat; details: primary microglia HTS, fibrin stimulation; for inhibition at 10 µM: Rattus norvegicus, Microglia, read-out: Fibrin % inhibition
[2] = test system: LPS-induced microglia activation; experiment: Image-based assay of LPS-induced microglia activation (HTS and dose response); type: cell-based, rat; details: for inhibition at 10 µM: Rattus norvegicus, Microglia, read-out: LPS % inhibition
[3] = test system: fibrin- and LPS-induced microglia activation; experiment: cells; type: cell-based, rat
primary rat microglia [4] = test system: primary rat microglia
primary rat microglia [5] = experiment: Cell toxicity (dead cells, size <150 μm2) in coated fibrin (cFib) assay; details: primary microglia HTS;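 also: share of dead cells sized under 150 µm2 at 10 µM in fibrin-stimulated microglia HTS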
[6] = primary microglia HTS, LPS stimulation, compounds at 10 μM
[7] = quadrant by fibrin and LPS inhibition, HTS at 10 μM
[8] = fibrin assay, dead cells (size <150 μm2)
[9] = classification by fibrin and LPS inhibition, HTS at 10 μM
[10] = fibrin assay, dead cells (size <150 μm2), compounds at 10 μM
[11] = cell size >800 μm2 as marker of activation
[12] = classification by fibrin and LPS inhibition in HTS
[13] = fibrin stimulation, cell size <150 μm2 as marker of toxicity

| SMILES | Quadrant (FIG. 5b) [3, 7] | Fibrin % cell toxicity (primary rat microglia [5]; [8]) [%] | LPS % cell toxicity (primary rat microglia [4]; rat) [%] | inhibition at 10 µM ([1]; compounds at 10 μM) [%] | inhibition at 10 µM [2, 6] [%] | Quadrant (FIG. 5b) [3, 9] | Fibrin % cell toxicity (primary rat microglia [5]; [10]) [%] | further results |
| --- | --- | --- | --- | --- | --- | --- | --- | --- |
| NC(Cc1ccc(Cl)cc1)C(=O)O (racemic) [(±)-p-chlorophenylalanine, Fenclonine] | Q4 | 1 |  |  |  |  |  | Fibrin % inhibition ([1]; compounds at 10 μM): 16%; LPS % inhibition [2, 6]: 5%; LPS % cell toxicity (primary rat microglia [4]): 0% |
| CC1(C)S[C@@H]2[C@H](NC(=O)[C@H](NC(=O)N3CCNC3=O)c3ccccc3)C(=O)N2[C@H]1C(=O)O [Azlocillin] | Q4 | 1 | 1 |  |  |  |  | Fibrin % inhibition ([1]; compounds at 10 μM, 10 µM): −14%; LPS % inhibition ([2]; primary microglia HTS, LPS stimulation, compounds at 10 μM, 10 µM): 6% |
| CCOc1ccc(Cc2nccc3cc(OCC)c(OCC)cc23)cc1OCC [Ethaverine Hydrochloride] |  |  | 1 | 41 | 24 | Q4 | 1 |  |
| O=C(O)CCCCCCCC(=O)O [Azelaic Acid] | Q4 | 0 | 0 | 6 | 19 |  |  |  |
| Nc1nc(N)c2nc(CNc3ccc(C(=O)N[C@@H](CCC(=O)O)C(=O)O)cc3)cnc2n1 [Aminopterin] | Q4 | 1 | 0 | -12 | 17 |  |  |  |
| CC(=O)Oc1cccc(C(=O)O)c1OC(C)=O [Dipyrocetyl] |  |  | 0 | -1 | 7 | Q4 | 1 |  |
| C[C@]12CCC(=O)C=C1[C@@H]1C[C@@H]1[C@H]1[C@@H]3[C@@H]4C[C@@H]4[C@@]4(CCC(=O)O4)[C@@]3(C)CC[C@@H]12 [Drospirenone] |  |  | 1 | 11 | 6 | Q4 | 1 |  |
| CNC(=C[N+](=O)[O-])NCCSCc1ccc(CN(C)C)o1 [Ranitidine] |  |  | 0 |  |  |  |  | inhibition at 10 µM [1, 11]: 35%; inhibition at 10 µM ([2]; 48 h): 15%; Quadrant (FIG. 5b) [3, 12]: Q4; Fibrin % cell toxicity (primary rat microglia [5]; [13]): 1% |
| CC(C)NCC(O)COc1cccc2[nH]ccc12 (centres unmarked) [Pindolol] |  |  | 1 |  |  |  |  | inhibition at 10 µM [1, 11]: -13%; inhibition at 10 µM ([2]; 48 h): 24%; Quadrant (FIG. 5b) [3, 12]: Q4; Fibrin % cell toxicity (primary rat microglia [5]; [13]): 1% |
| CCOc1ccccc1C(N)=O [Ethenzamide] |  |  | 0 | -15 | 5 | Q4 | 1 |  |
| CN1CCN(c2cc3c(cc2F)c(=O)c(C(=O)O)cn3-c2ccc(F)cc2)CC1 [Difloxacin Hydrochloride] |  |  | 1 | 25 | 33 | Q4 | 1 |  |
| COC(=O)CCc1ccc(OCC(O)CNC(C)C)cc1 (centres unmarked) [Esmolol, Esmolol Hydrochloride] |  |  |  |  |  | Q4 | 1 | Fibrin % inhibition ([1]; compounds at 10 μM): −15%; LPS % inhibition [2, 6]: 2%; LPS % cell toxicity (primary rat microglia [4]): 0% |
| C=C(NC(=O)C(=C)NC(=O)c1csc(C2=N[C@@H]3c4csc(n4)[C@H]4NC(=O)c5csc(n5)[C@H]([C@](C)(O)[C@@H](C)O)NC(=O)[C@H]5CSC(=N5)/C(=C/C)NC(=O)[C@H]([C@@H](C)O)NC(=O)c5csc(n5)[C@]3(CC2)NC(=O)[C@H](C)NC(=O)C(=C)NC(=O)[C@H](C)NC(=O)[C@H]([C@@H](C)CC)N[C@@H]2C=Cc3c([C@H](C)O)cc(nc3[C@H]2O)C(=O)O[C@@H]4C)n1)C(N)=O [Thiostrepton] | Q2 | 64 | 1 | 109 | 65 |  |  |  |
| C[C@@H]1CC[C@H]2[C@@H](C)C(=O)O[C@@H]3O[C@@]4(C)CC[C@@H]1[C@]32OO4 [Artemisinin] | Q4 | 0 | 0 | -25 | 12 |  |  |  |
| CCC1(CC)C(=O)NC(=O)NC1=O [Barbital] | Q4 | 0 | 0 | -5 | 11 |  |  |  |
| C[C@H]1[C@@H](O)O[C@@H]2O[C@@]3(C)CC[C@H]4[C@H](C)CC[C@@H]1[C@@]24OO3 [Artenimol] | Q4 | 0 | 0 | -56 | 11 |  |  |  |
| CCOC(=O)C1=C(C)NC(C)=C(C(=O)OC)C1c1cccc(Cl)c1Cl (centres unmarked) [Felodipine] |  |  | 0 | 2 | 14 | Q4 | 1 |  |

| SMILES | Quadrant (FIG. 5b) [3, 7] | Fibrin % cell toxicity (primary rat microglia [5]; [8]) [%] | LPS % cell toxicity (primary rat microglia [4]; rat) [%] | inhibition at 10 µM ([1]; compounds at 10 μM) [%] | inhibition at 10 µM [2, 6] [%] | Quadrant (FIG. 5b) [3, 9] | Fibrin % cell toxicity (primary rat microglia [5]; [10]) [%] | further results |
| --- | --- | --- | --- | --- | --- | --- | --- | --- |
| CCCCCCCCCCOc1cc2c(O)c(C(=O)OCC)cnc2cc1OCC [Decoquinate] |  |  | 1 | 7 | 20 | Q4 | 1 |  |
| CN1C(C(=O)Nc2ccccn2)=C(O)c2ccccc2S1(=O)=O [Piroxicam] |  |  | 0 |  |  |  |  | inhibition at 10 µM [1, 11]: 4%; inhibition at 10 µM ([2]; 48 h): 19%; Quadrant (FIG. 5b) [3, 12]: Q4; Fibrin % cell toxicity (primary rat microglia [5]; [13]): 1% |
| CN1CC(=O)NC1=N [Creatinine] |  |  | 0 | -3 | 10 | Q4 | 1 |  |
| N=C(N)N1CCc2ccccc2C1 [Debrisoquin] |  |  | 0 | 8 | 17 | Q4 | 1 |  |
| CC(=O)[C@H]1CC[C@H]2[C@@H]3CC=C4C[C@@H](O)CC[C@]4(C)[C@H]3CC[C@]12C [Pregnenolone] |  |  |  |  |  |  |  | Fibrin % inhibition [1, 11]: −11%; LPS % inhibition [2]: 12%; Quadrant (FIG. 5b) [3, 12]: Q4; LPS % cell toxicity (primary rat microglia [4]): 0%; Fibrin % cell toxicity (primary rat microglia [5]; [13]): 1% |
| CC[C@H]1OC(=O)[C@H](C)[C@@H](O[C@H]2C[C@@](C)(OC)[C@@H](O)[C@H](C)O2)[C@H](C)[C@@H](O[C@@H]2O[C@H](C)C[C@H](N(C)C)[C@H]2O)[C@](C)(O)C[C@@H](C)/C(=N\OCOCCOC)[C@H](C)[C@@H](O)[C@]1(C)O [Roxithromycin] |  |  | 1 |  |  |  |  | inhibition at 10 µM [1, 11]: -4%; inhibition at 10 µM ([2]; 48 h): 17%; Quadrant (FIG. 5b) [3, 12]: Q4; Fibrin % cell toxicity (primary rat microglia [5]; [13]): 0% |
| Nc1ccc(/N=N/c2ccccc2)c(N)n1 [Phenazopyridine] |  |  | 0 |  |  |  |  | inhibition at 10 µM [1, 11]: 9%; inhibition at 10 µM ([2]; 48 h): 6%; Quadrant (FIG. 5b) [3, 12]: Q4; Fibrin % cell toxicity (primary rat microglia [5]; [13]): 0% |
| Oc1ccc(Cl)cc1Cc1cc(Cl)ccc1O [Dichlorophene, Dichlorophen] |  |  |  |  |  | Q4 | 1 | Fibrin % inhibition ([1]; compounds at 10 μM): −23%; LPS % inhibition [2, 6]: 15%; LPS % cell toxicity (primary rat microglia [4]): 0% |
| CCc1nc(N)nc(N)c1-c1ccc(Cl)cc1 [Pyrimethamine] |  |  | 1 |  |  |  |  | inhibition at 10 µM [1, 11]: -11%; inhibition at 10 µM ([2]; 48 h): 12%; Quadrant (FIG. 5b) [3, 12]: Q4; Fibrin % cell toxicity (primary rat microglia [5]; [13]): 1% |
| Cc1c(NC(=O)c2cccnc2)c(=O)n(-c2ccccc2)n1C [Nifenazone] | Q2 | 85 | 78 | 114 | 132 |  |  |  |
| CCC(=O)NCC[C@@H]1CCc2ccc3c(c21)CCO3 [Ramelteon] |  |  | 0 |  |  |  |  | inhibition at 10 µM [1, 11]: 25%; inhibition at 10 µM ([2]; 48 h): 20%; Quadrant (FIG. 5b) [3, 12]: Q4; Fibrin % cell toxicity (primary rat microglia [5]; [13]): 0% |
| Nc1ccc(C(=O)NCC(=O)O)cc1 [Aminohippuric Acid] | Q4 | 1 | 1 | -7 | 16 |  |  |  |
| CC(=O)Nc1cccc(O)c1 [3-acetamidophenol] | Q4 | 1 | 0 | 4 | 5 |  |  |  |
| NC(=O)OCC(COC(N)=O)c1ccccc1 [Felbamate] |  |  | 0 | -32 | 0 | Q4 | 1 |  |
| N[C@@H](CC(=O)N1CCn2c(nnc2C(F)(F)F)C1)Cc1cc(F)c(F)cc1F [Sitagliptin] |  |  | 0 |  |  |  |  | inhibition at 10 µM [1, 11]: -16%; inhibition at 10 µM ([2]; 48 h): 4%; Quadrant (FIG. 5b) [3, 12]: Q4; Fibrin % cell toxicity (primary rat microglia [5]; [13]): 0% |
| CN(C)CCOC(=O)C(c1ccccc1)C1(O)CCCC1 (centres unmarked) [Cyclopentolate] |  |  | 0 | -8 | 9 | Q4 | 1 |  |
| CCCCCCCCNC(C)C(O)c1ccc(SC(C)C)cc1 (centres unmarked) [Suloctidil] | Q3 | 90 | 0 | 112 | 3 |  |  |  |
